{
  "source": "paper PMC5085100",
  "about": "“Conjugation to the sigma-2 ligand SV119 overcomes uptake blockade and converts dm-Erastin into a potent pancreatic cancer therapeutic” (Oncotarget, 2016)",
  "biological_target": "T1, cystine/glutamate antiporter (system xc-) (Homo sapiens, UniProt Q9UPY5)",
  "T1 construct": "gene SLC7A11",
  "T1 sequence (Q9UPY5 1-501)": "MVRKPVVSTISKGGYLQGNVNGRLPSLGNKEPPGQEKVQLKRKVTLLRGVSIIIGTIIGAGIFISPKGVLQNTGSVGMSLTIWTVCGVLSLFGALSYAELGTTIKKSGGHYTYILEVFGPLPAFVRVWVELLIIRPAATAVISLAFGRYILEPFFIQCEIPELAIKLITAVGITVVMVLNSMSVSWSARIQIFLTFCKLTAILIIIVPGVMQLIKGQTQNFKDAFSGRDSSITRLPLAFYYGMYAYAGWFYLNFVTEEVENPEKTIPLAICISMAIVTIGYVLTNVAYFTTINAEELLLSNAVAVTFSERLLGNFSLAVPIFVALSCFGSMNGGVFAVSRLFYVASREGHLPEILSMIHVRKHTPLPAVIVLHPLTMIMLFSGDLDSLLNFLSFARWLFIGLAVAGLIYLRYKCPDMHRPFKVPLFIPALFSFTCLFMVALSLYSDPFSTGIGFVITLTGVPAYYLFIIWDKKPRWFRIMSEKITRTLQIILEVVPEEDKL",
  "T1 sequence (P08195 2-529 partner)": "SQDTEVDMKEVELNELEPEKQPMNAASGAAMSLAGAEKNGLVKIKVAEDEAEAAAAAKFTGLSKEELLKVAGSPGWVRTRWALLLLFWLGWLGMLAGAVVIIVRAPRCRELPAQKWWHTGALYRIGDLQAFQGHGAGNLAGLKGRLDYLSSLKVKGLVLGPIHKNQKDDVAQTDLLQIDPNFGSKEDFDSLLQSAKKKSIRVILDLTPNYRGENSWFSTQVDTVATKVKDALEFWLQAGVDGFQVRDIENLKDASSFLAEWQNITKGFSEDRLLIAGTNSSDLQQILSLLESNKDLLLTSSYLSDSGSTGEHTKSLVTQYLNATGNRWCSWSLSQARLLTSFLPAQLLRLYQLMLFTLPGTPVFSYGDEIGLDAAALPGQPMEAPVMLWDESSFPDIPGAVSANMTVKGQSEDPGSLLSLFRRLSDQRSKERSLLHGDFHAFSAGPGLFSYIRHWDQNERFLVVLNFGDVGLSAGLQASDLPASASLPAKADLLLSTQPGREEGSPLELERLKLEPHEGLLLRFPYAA",
  "assay": "[…]-cystine uptake inhibition in AsPC-1 cells, […] min at […]",
  "assay_type": "cell-based",
  "details": "ASPC1; read-out: % blockade at 200 μM",
  "data": [
    {"smiles": "CCOc1ccccc1-n1c(CN2CCN(C(=O)COc3ccc(CNCCCCCCN4C5CCCC4CC(OC(=O)Nc4cc(C)ccc4OC)C5)cc3)CC2)nc2ccccc2c1=O", "note": "(stereo not shown) [SW V-49]", "values": [
      {"measurement": "inhibition at 200 µM", "value": 85, "unit": "%"}
    ]}
  ]
}
